Several values for one entry are separate records, joined by “and”; a condition that tells them apart may be missing. Equal values may be shown once.
What follows are molecules tested against T1, USP7 (Homo sapiens, UniProt Q93009) (assay: USP7, Ub-PLA2 assay). Conditions: Ub-PLA2 / NBD C6-HPC fluorescence, 30 minute preincubation; read-out: EC50 for inhibition of USP7.
T1 construct: full length human USP7 protein; made in house
Type: biochemical
Method in brief: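 Compounds tested against USP7 with DMSO vehicle control and NEM-treated wells as background. Fluorescence (RFU) read-out; % inhibition normalized per plate to mean DMSO and NEM controls.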

T1 sequence (Q93009 whole entry): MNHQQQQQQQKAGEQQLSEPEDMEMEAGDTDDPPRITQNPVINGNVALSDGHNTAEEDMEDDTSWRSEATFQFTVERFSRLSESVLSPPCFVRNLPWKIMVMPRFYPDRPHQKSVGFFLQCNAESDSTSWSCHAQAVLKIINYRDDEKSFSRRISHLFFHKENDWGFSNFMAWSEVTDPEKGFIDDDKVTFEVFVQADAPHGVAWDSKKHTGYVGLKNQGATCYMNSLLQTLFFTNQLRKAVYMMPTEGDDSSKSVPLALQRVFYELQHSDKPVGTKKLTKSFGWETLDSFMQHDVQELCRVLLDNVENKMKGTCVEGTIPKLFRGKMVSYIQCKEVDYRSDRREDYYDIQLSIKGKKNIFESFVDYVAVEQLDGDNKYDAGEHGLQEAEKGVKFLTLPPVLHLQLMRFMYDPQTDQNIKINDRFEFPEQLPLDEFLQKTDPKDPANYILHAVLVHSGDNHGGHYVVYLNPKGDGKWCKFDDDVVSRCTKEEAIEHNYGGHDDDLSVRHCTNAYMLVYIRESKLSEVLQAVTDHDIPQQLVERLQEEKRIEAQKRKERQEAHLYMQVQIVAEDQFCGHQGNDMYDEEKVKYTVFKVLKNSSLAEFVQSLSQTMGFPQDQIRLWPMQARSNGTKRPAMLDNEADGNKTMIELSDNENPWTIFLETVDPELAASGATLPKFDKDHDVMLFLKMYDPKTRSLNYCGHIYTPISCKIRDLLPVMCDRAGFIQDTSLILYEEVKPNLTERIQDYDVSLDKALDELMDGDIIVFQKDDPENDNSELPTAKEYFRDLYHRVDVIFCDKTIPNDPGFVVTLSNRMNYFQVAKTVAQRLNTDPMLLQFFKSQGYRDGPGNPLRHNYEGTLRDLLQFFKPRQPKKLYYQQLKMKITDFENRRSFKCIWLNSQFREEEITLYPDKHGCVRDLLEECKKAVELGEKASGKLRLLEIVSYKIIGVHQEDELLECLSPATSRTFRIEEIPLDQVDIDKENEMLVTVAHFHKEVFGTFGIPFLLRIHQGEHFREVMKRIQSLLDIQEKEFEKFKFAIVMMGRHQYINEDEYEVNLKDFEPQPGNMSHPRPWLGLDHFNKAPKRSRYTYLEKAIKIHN

Structure (SMILES)	EC50
O=C(NCC(=O)N1CCC(O)CC1)c1cc([N+](=O)[O-])c(Sc2c(Cl)cncc2Cl)s1 [Example 211, 5-((3,5-dichloropyridin-4-yl)thio)-N-(2-(4-hydroxypiperidin-1-yl)-2-oxoethyl)-4-nitrothiophene-2-carboxamide]	1000 to 10000 nM
O=C(CNC(=O)c1cc([N+](=O)[O-])c(Sc2c(Cl)cncc2Cl)s1)NCC(F)F [Example 219, 5-((3,5-dichloropyridin-4-yl)thio)-N-(2-((2,2-difluoroethyl)amino)-2-oxoethyl)-4-nitrothiophene-2-carboxamide]	1000 to 10000 nM
CN(C)CCCOc1ccc(NC(=O)c2cc([N+](=O)[O-])c(Sc3c(F)cncc3F)s2)cc1 [Example 257, 5-((3,5-difluoropyridin-4-yl)thio)-N-(4-(3-(dimethylamino)propoxy)phenyl)-4-nitrothiophene-2-carboxamide]	1000 to 10000 nM
CN1C2CCC1CC(NC(=O)c1cc([N+](=O)[O-])c(Sc3c(Cl)cncc3Cl)s1)C2 (stereo not shown) [Example 184, 5-((3,5-dichloropyridin-4-yl)thio)-N-(8-methyl-8-azabicyclo[3.2.1]octan-3-yl)-4-nitrothiophene-2-carboxamide]	≤ 1000 nM
CN(C)CCNC(=O)c1cc([N+](=O)[O-])c(Sc2c(Cl)cncc2Cl)s1 [Example 48, 5-[(3,5-dichloro-4-pyridyl)sulfanyl]-N-(2-dimethylaminoethyl)-4-nitro-thiophene-2-carboxamide]	1000 to 10000 nM
O=C(Nc1ccc2c(c1)CCC2)c1cc([N+](=O)[O-])c(Sc2c(Cl)cncc2Cl)s1 [Example 112]	≤ 1000 nM
O=C(NCC(=O)N1CCC(F)CC1)c1cc([N+](=O)[O-])c(Sc2c(Cl)cncc2Cl)s1 [Example 216, 5-((3,5-dichloropyridin-4-yl)thio)-N-(2-(4-fluoropiperidin-1-yl)-2-oxoethyl)-4-nitrothiophene-2-carboxamide]	1000 to 10000 nM
CN1CCC(NC(=O)c2cc([N+](=O)[O-])c(Sc3c(Cl)cncc3Cl)s2)C1 (stereo not shown) [Example 94, 5-((3,5-dichloropyridin-4-yl)thio)-N-(1-methylpyrrolidin-3-yl)-4-nitrothiophene-2-carboxamide]	1000 to 10000 nM
CC(=O)c1cc([N+](=O)[O-])c(Sc2c(F)c(F)c(Cl)c(F)c2F)s1 [Example 272, 1-(5-((4-chloro-2,3,5,6-tetrafluorophenyl)thio)-4-nitrothiophen-2-yl)ethanone]	1000 to 10000 nM and > 10000 nM
CN1CCC(NC(=O)c2sc(Sc3c(Cl)cncc3Cl)c(C#N)c2-c2ccccc2)CC1 [Example 247, 4-cyano-5-((3,5-dichloropyridin-4-yl)thio)-N-(1-methylpiperidin-4-yl)-3-phenylthiophene-2-carboxamide]	1000 to 10000 nM
O=C(NCCCN1CCC(F)CC1)c1cc([N+](=O)[O-])c(Sc2c(Cl)cncc2Cl)s1 [Example 228, 5-((3,5-dichloropyridin-4-yl)thio)-N-(3-(4-fluoropiperidin-1-yl)propyl)-4-nitrothiophene-2-carboxamide]	1000 to 10000 nM
O=C(O)CNC(=O)c1cc([N+](=O)[O-])c(Sc2c(Cl)cncc2Cl)s1 [Example 210, 2-(5-((3,5-dichloropyridin-4-yl)thio)-4-nitrothiophene-2-carboxamido)acetic acid]	1000 to 10000 nM
COc1cc(CNC(=O)c2cc([N+](=O)[O-])c(Sc3c(Cl)cncc3Cl)s2)cc(OC)c1 [Example 69, 5-((3,5-dichloropyridin-4-yl)thio)-N-(3,5-dimethoxybenzyl)-4-nitrothiophene-2-carboxamide]	1000 to 10000 nM
O=C(NCc1ccccc1Cl)c1cc([N+](=O)[O-])c(Sc2c(Cl)cncc2Cl)s1 [Example 60, N-(2-chlorobenzyl)-5-((3,5-dichloropyridin-4-yl)thio)-4-nitrothiophene-2-carboxamide]	1000 to 10000 nM
O=C(NCc1cccc(Cl)c1)c1cc([N+](=O)[O-])c(Sc2c(Cl)cncc2Cl)s1 [Example 57, N-(3-chlorobenzyl)-5-((3,5-dichloropyridin-4-yl)thio)-4-nitrothiophene-2-carboxamide]	1000 to 10000 nM

Further lines, results first:

EC50	Structure (SMILES)
1000 to 10000 nM	O=C(NCCC(=O)N1CCCC1)c1cc([N+](=O)[O-])c(Sc2c(Cl)cncc2Cl)s1 [Example 268, 5-((3,5-dichloropyridin-4-yl)thio)-4-nitro-N-(3-oxo-3-(pyrrolidin-1-yl)propyl)thiophene-2-carboxamide]
1000 to 10000 nM	CN1CCC(NC(=O)c2cc([N+](=O)[O-])c(Sc3c(Cl)c[n+]([O-])cc3Cl)s2)CC1 [Example 242, 3,5-dichloro-4-((5-((1-methylpiperidin-4-yl)carbamoyl)-3-nitrothiophen-2-yl)thio)pyridine 1-oxide]
≤ 1000 nM	O=C(Nc1c(Cl)cccc1Cl)c1cc([N+](=O)[O-])c(Sc2c(Cl)cncc2Cl)s1 [Example 135, N-(2,6-dichlorophenyl)-5-((3,5-dichloropyridin-4-yl)thio)-4-nitrothiophene-2-carboxamide]
1000 to 10000 nM	CCN1CCC(CNC(=O)c2cc([N+](=O)[O-])c(Sc3c(Cl)cncc3Cl)s2)C1 (stereo not shown) [Example 91, 5-((3,5-dichloropyridin-4-yl)thio)-N-((1-ethylpyrrolidin-3-yl)methyl)-4-nitrothiophene-2-carboxamide]
≤ 1000 nM	Cc1cccc(CNC(=O)c2cc([N+](=O)[O-])c(Sc3c(Cl)cncc3Cl)s2)c1 [Example 150, 5-((3,5-dichloropyridin-4-yl)thio)-N-(3-methylbenzyl)-4-nitrothiophene-2-carboxamide]
1000 to 10000 nM	O=C(NCc1cccc(OC(F)(F)F)c1)c1cc([N+](=O)[O-])c(Sc2c(Cl)cncc2Cl)s1 [Example 68, 5-((3,5-dichloropyridin-4-yl)thio)-4-nitro-N-(3-(trifluoromethoxy)benzyl)thiophene-2-carboxamide]
1000 to 10000 nM	CN1CCC(NC(=O)c2cc([N+](=O)[O-])c(Sc3c(Cl)cccc3Cl)s2)CC1 [Example 269, 5-((2,6-dichlorophenyl)thio)-N-(1-methylpiperidin-4-yl)-4-nitrothiophene-2-carboxamide]
≤ 1000 nM	O=C(NC1CC2CCC1C2)c1cc([N+](=O)[O-])c(Sc2c(Cl)cncc2Cl)s1 (stereo not shown) [Example 177, N-(bicyclo[2.2.1]heptan-2-yl)-5-((3,5-dichloropyridin-4-yl)thio)-4-nitrothiophene-2-carboxamide]
1000 to 10000 nM	CC(=O)c1cc([N+](=O)[O-])c(Sc2c(F)c(F)cc(F)c2F)s1 [Example 36, 1-[4-nitro-5-(2,3,5,6-tetrafluorophenyl)sulfanyl-2-thienyl]ethanone]
1000 to 10000 nM	Cc1cnc(NC(=O)c2cc([N+](=O)[O-])c(Sc3c(Cl)cncc3Cl)s2)s1 [Example 89]
≤ 1000 nM	O=C(Nc1ccc2c(c1)OCO2)c1cc([N+](=O)[O-])c(Sc2c(Cl)cncc2Cl)s1 [Example 158, N-(benzo[d][1,3]dioxol-5-yl)-5-((3,5-dichloropyridin-4-yl)thio)-4-nitrothiophene-2-carboxamide]
≤ 1000 nM	CN1CCC(CNC(=O)c2cc([N+](=O)[O-])c(Sc3c(Cl)cncc3Cl)s2)CC1 [Example 190, 5-((3,5-dichloropyridin-4-yl)thio)-N-((1-methylpiperidin-4-yl)methyl)-4-nitrothiophene-2-carboxamide]
≤ 1000 nM	CCCN1CCC(NC(=O)c2cc([N+](=O)[O-])c(Sc3c(Cl)cncc3Cl)s2)CC1 [Example 230, 5-((3,5-dichloropyridin-4-yl)thio)-4-nitro-N-(1-propylpiperidin-4-yl)thiophene-2-carboxamide]

Source: patent publication US8680139B2 (Progenra, priority 2009, dated 2014)
